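Five concentrations, 48 hours, 96-well plates. TGI denotes the concentration required for complete inhibition of growth.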 Where a SMILES comes first, the peptide text is derived from it. The star is where a group is joined. Boc = CC(C)(C)OC(=O)*; OSu = O=C1CCC(=O)N1O*
What was measured:
Experiment in all cases: growth of human tumour cells (NCI), 48 h
[1] = tested on: CCRF-CEM leukemia
[2] = tested on: MDA-MB-435
[3] = tested on: MCF7 breast
[4] = tested on: SR leukemia
[5] = tested on: UO-31 renal
[6] = tested on: LOX IMVI melanoma
[7] = tested on: DU-145 prostate
[8] = tested on: SF-268 CNS
[9] = tested on: SN12C renal
[10] = tested on: A498 renal

Row | Compound | TGI [1] [µM] | TGI [2] [µM] | TGI [3] [µM] | TGI [4] [µM] | TGI [5] [µM] | TGI [6] [µM] | TGI [7] [µM] | TGI [8] [µM] | TGI [9] [µM] | TGI [10] [µM]
1 | Oc1ccc(-c2nc(-c3cccnc3)c(-c3ccc(Cl)cc3)[nH]2)cc1O | > 100 | 30.3 | 24.2 | > 100 | 26.8 | 30.1 | 90.8 | 39.7 | 31.3 | –
2 | O=C(c1ccco1)N1CCCN(C(=O)c2ccco2)C1=S | > 100 | > 100 | > 100 | – | > 100 | > 100 | > 100 | > 100 | > 100 | > 100
3 | Cc1c(Cl)nc(Nc2nc3ccccc3[nH]2)nc1Cl | – | > 100 | – | > 100 | > 100 | – | > 100 | > 100 | > 100 | > 100
4 | COC(=O)/C(=C\Nc1cccc(C)n1)S(=O)(=O)c1ccc(C)cc1 | > 100 | > 100 | > 100 | > 100 | > 100 | > 100 | > 100 | > 100 | > 100 | –
5 | CCC(CON(C)c1ccccc1)(SC)SC | > 100 | > 100 | > 100 | > 100 | > 100 | > 100 | > 100 | > 100 | > 100 | –
6 | CCN(CC)CC1CCCCN1CC(=O)N1c2ccccc2NC(=O)CC1C (stereo not drawn) | > 100 | > 100 | > 100 | – | > 100 | > 100 | > 100 | > 100 | > 100 | > 100
7 | O=C(NCCC1([N+](=O)[O-])CCN(C(=O)c2ccccc2)CC1)c1ccccc1 | > 100 | > 100 | – | > 100 | > 100 | – | > 100 | > 100 | > 100 | > 100
8 | OC(c1cc2ccccc2o1)c1cc2ccccc2s1 (stereo not drawn) | > 10 | > 10 | > 10 | > 10 | > 10 | > 10 | > 10 | > 10 | > 10 | –
9 | COC(=O)C1Cc2c(OC)ccc(OC)c2CC(C(=O)OC)C1=O (stereo not drawn) | > 100 | > 100 | > 100 | – | > 100 | – | > 100 | > 100 | > 100 | > 100
10 | C1CCC2(CC1)O[C@@H]1[C@@H](O2)[C@@H](O[C@H]2O[C@@H]3COC4(CCCCC4)O[C@H]3[C@@H]3OC4(CCCCC4)O[C@@H]23)O[C@@H]2COC3(CCCCC3)O[C@@H]12 | > 100 | > 100 | > 100 | – | > 100 | > 100 | > 100 | > 100 | > 100 | > 100
11 | Cc1nc(C)c(C(=O)NNC(N)=S)cc1C(=O)NNC(N)=S | – | > 100 | > 100 | – | > 100 | > 100 | > 100 | > 100 | > 100 | –
12 | CCCN1C(=O)CC(C)N(Cc2ccccc2Cl)C1=S (stereo not drawn) | > 100 | 65.9 | 78.4 | – | – | 54.9 | > 100 | 86.5 | 94.8 | 47
13 | CC(=O)[C@@]1(C)CC2(CCN(C)CC2)OC1C (stereo partly drawn) | – | > 100 | – | – | > 100 | > 100 | > 100 | > 100 | > 100 | > 100
14 | CC[C@]12C=CCN3CC[C@@]4(c5cc(Br)c(OC)cc5N(C)[C@H]4[C@@](O)(C(=O)NN)[C@@H]1O)[C@@H]32 | > 100 | > 100 | > 100 | – | > 100 | > 100 | > 100 | > 100 | > 100 | > 100
15 | O=C(/C=C/c1ccc(O)cc1)c1ccc2c(c1)OCO2 | 5.69 | 69.5 | – | 33.6 | 38.8 | 47 | 76.7 | 58.5 | 30.7 | 38.4
16 | Cc1cnc2sn(-c3ccc(Oc4ccccc4)cc3)c(=O)c2c1 | > 100 | > 100 | 75.4 | 44 | 42.8 | 81 | 37.8 | 38.2 | 43 | –
17 | [N-]=[N+]=C1N=CN=C1c1ncn[nH]1 | 27.6 | > 100 | > 100 | – | 86.3 | 40 | > 100 | – | 93.9 | > 100
18 | CC(NC(=O)C(NC(=O)OC(C)(C)C)C(C)C)C(=O)NCC(=O)ON1C(=O)CCC1=O (stereo not drawn) (Boc-Val-Ala-Gly-OSu; configuration not given here) | – | > 100 | > 100 | > 100 | > 100 | – | > 100 | > 100 | > 100 | –
19 | BrCCCCCOc1ccc(-c2c3ccccc3c(-c3ccc(OCCCCCBr)cc3)c3ccccc23)cc1 | > 100 | > 100 | > 100 | > 100 | > 100 | – | > 100 | > 100 | > 100 | –
